Results from patent US20240239789A1, “SALTS OF 2-BRO[…] DIETHYLAMIDE” (Ceruvia Lifesciences LLC, priority 2022, published 2024).

How the values were obtained:
Assay type in all cases: physicochemical
[1] = Dynamic vapor sorption (DVS) moisture sorption analysis
Method: (§1) Sorption isotherms were obtained using a Hiden Isochema moisture sorption analyser (model IGAsorp), controlled by IGAsorp Systems Software V6.50.48. The sample was maintained at a constant temperature (25° C.) by the instrument controls. The humidity was controlled by mixing streams of dry and wet nitrogen, with a total flow of 250 mL/min. The instrument was verified for relative humidity content by measuring three calibrated Rotronic salt solutions (10-50-88%). The weight change of the sample was monitored as a function of humidity by a microbalance (accuracy +/−0.005 mg). A defined amount of sample was placed in a tared mesh stainless steel basket under ambient conditions. A full experimental cycle typically consisted of three scans (sorption, desorption and sorption) at a constant temperature (25° C.) and 10% RH intervals over a 0-90% range (60 minutes for each humidity level).

[2] = Thermogravimetric analysis (TGA) weight loss after drying; details: after drying in vacuo at 50° C. for 18 hours; between 25° C. and 200° C.; heating rate 20° C./min
Method: TGA data were collected on a TA Instruments Discovery TGA equipped with a 25-position auto-sampler. The instrument was calibrated using a certified weight and certified Alumel and Nickel for temperature. A predefined amount of the sample, ca. 5 mg, was loaded into a pre-tared aluminum ACCUPIK™ sample pan and platinum crucible and was heated at 20° C./min from ambient (room) temperature to 400° C. unless otherwise stated. A nitrogen purge at 25 mL/min was maintained over the sample. The instrument control, data acquisition and analysis were performed with TA Instruments TRIOS software v4.1.1.33073.

[3] = XRPD analysis ex DVS following equilibration at extremes of humidity; details: 0% and 90% relative humidity
Description: The crystalline salts of 2-Br-LSD were characterized by their powder X-ray diffraction patterns. Powder X-ray diffractograms of the crystalline salts of 2-Br-LSD described herein were collected on a PANalytical X'pert PRO diffractometer using Cu Kα radiation (45 kV, 40 mA), θ-θ goniometer, focusing mirror, divergence slit (½″), soller slits at both incident and divergent beam (4 mm) and a PIXcel detector. Data was presented using X'Pert Data Viewer, version 1.2d. XRPD patterns were acquired under ambient conditions via a transmission foil sample stage (polyimide—Kapton®, 12.7 μm thickness film). The data collection range was 2.994-35° 2θ with a continuous scan speed of 0.202004° s^−1. Lists of major XRPD peaks (relative intensity ≥10%) for the crystalline salts of the present disclosure are tabulated below.
as §1, with “A defined amount of sample was placed in a tared mesh stainless steel basket under ambient conditions. A full experimental cycle typically consisted of three scans (sorption, desorption and sorption) at a constant temperature (25° C.) and 10% RH intervals over a 0-90% range (60 minutes for each humidity level).” left out

Br.CCN(CC)C(=O)[C@@H]1C=C2c3cccc4[nH]c(Br)c(c34)C[C@H]2N(C)C1 [2-Br-LSD hydrobromide (Form 1), 2-bromolysergic acid diethylamide hydrobromide]
weight change upon dynamic vapor sorption analysis ([1]; 25° C., RH range 0-90%, 10% RH intervals, 60 minutes for each humidity level): less than 0.5%
water retained at 0% RH (reversibility of water uptake) ([1]; 25° C., desorption to 0% RH): no water was retained
further weight increase between 60% RH and 90% RH ([1]; 25° C., initial sorption cycle, between 60% RH and 90% RH): 0.2 wt %
water gained during initial sorption cycle up to 60% RH ([1]; 25° C., initial sorption cycle, up to 60% RH): 0.21%
total water uptake ([1]; 25° C., initial sorption cycle, up to 90% RH): 0.4%
hygroscopicity ([1]; definition in b65: TGA <1% weight loss and DVS <about 0.5% weight change): non-hygroscopic
weight loss upon thermogravimetric analysis [2]: less than 1%
solid form change following equilibration at extremes of humidity [3]: no form change occurred
